According to ChEMBL document CHEMBL5137054, “Xyloketal B Reverses Nutritional Hepatic Steatosis, Steatohepatitis, and Liver Fibrosis through Activation of the PPARα/PGC1α Signaling Pathway” (J Nat Prod, 2022):
Calls of active or inactive are those of the source.

What was measured:
Type in all cases: functional, organism-based
Settings in all cases: time 6.0 weeks
Mus musculus [1] = experiment: Upregulation of Cpt1a gene transcriptional level in HFD-induced C57BL/6J mouse model of NAFL at 15 mg/kg/day, ip administered from week 7 to week 12 by qRT-PCR analysis
Mus musculus [2] = experiment: Upregulation of Cpt1c gene transcriptional level in HFD-induced C57BL/6J mouse model of NAFL at 15 mg/kg/day, ip administered from week 7 to week 12 by qRT-PCR analysis
Mus musculus [3] = experiment: Upregulation of Acox1 gene transcriptional level in HFD-induced C57BL/6J mouse model of NAFL at 15 mg/kg/day, ip administered from week 7 to week 12 by qRT-PCR analysis
Mus musculus [4] = experiment: Upregulation of Cpt1b gene transcriptional level in HFD-induced C57BL/6J mouse model of NAFL at 15 mg/kg/day, ip administered from week 7 to week 12 by qRT-PCR analysis
Mus musculus [5] = experiment: Upregulation of peroxisomal bifunctional enzyme gene transcriptional level in HFD-induced C57BL/6J mouse model of NAFL at 15 mg/kg/day, ip administered from week 7 to week 12 by qRT-PCR analysis
Mus musculus [6] = experiment: Upregulation of Medium-chain specific acyl-CoA dehydrogenase gene transcriptional level in HFD-induced C57BL/6J mouse model of NAFL at 15 mg/kg/day, ip administered from week 7 to week 12 by qRT-PCR analysis
Mus musculus [7] = experiment: Upregulation of Cyp4a14 gene transcriptional level in HFD-induced C57BL/6J mouse model of NAFL at 15 mg/kg/day, ip administered from week 7 to week 12 by qRT-PCR analysis
Mus musculus [8] = experiment: Upregulation of Acox2 gene transcriptional level in HFD-induced C57BL/6J mouse model of NAFL at 15 mg/kg/day, ip administered from week 7 to week 12 by qRT-PCR analysis
Mus musculus [9] = experiment: Upregulation of Acaa1a gene transcriptional level in HFD-induced C57BL/6J mouse model of NAFL at 15 mg/kg/day, ip administered from week 7 to week 12 by qRT-PCR analysis
Mus musculus [10] = experiment: Upregulation of Cyp4a10 gene transcriptional level in HFD-induced C57BL/6J mouse model of NAFL at 15 mg/kg/day, ip administered from week 7 to week 12 by qRT-PCR analysis
Mus musculus [11] = experiment: Upregulation of long-chain specific acyl-CoA dehydrogenase gene transcriptional level in HFD-induced C57BL/6J mouse model of NAFL at 15 mg/kg/day, ip administered from week 7 to week 12 by qRT-PCR analysis

Measured: Activity

CC(C)c1c(C(=O)Nc2ccccc2)c(-c2ccccc2)c(-c2ccc(F)cc2)n1CC[C@@H](O)C[C@@H](O)CC(=O)O
active: all assays above
